# Results: patent US20260216347A1, “Substituted Imidazo-Based Compounds as Ligand Directed Degraders of IRAK3” (Celgene Corporation, priority 2022, published 2026)
# Assays:
# IRAK3 = molecular target: T1, IRAK3 (Homo sapiens, UniProt Q9Y616); assay: IRAK endogenous HTRF degradation assay (Total-IRAK3 HTRF kit); format: cell-based; settings: overnight incubation, lowest percentage of protein remaining
# T1 construct: IRAK Endogenous HTRF Degradation Assay; endogenous in cells
# T1 sequence (Q9Y616 1-596): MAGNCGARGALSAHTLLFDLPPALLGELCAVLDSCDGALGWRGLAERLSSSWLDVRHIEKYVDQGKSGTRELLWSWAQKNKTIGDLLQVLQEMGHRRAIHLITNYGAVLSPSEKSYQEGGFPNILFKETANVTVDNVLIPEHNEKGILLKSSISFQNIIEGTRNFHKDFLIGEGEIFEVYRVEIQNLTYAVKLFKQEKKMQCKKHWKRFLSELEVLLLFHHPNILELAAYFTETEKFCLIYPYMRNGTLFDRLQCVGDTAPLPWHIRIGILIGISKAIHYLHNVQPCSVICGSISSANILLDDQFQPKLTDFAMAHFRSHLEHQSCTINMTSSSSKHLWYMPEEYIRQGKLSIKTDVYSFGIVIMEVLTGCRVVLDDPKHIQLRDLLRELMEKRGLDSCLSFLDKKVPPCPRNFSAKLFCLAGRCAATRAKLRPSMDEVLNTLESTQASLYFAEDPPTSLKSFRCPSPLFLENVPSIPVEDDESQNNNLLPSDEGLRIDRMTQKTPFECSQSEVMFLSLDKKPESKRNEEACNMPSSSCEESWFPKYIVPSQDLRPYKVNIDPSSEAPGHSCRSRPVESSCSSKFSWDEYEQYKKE
# Protocol: Example B2. IRAK Endogenous HTRF Degradation Assay
# Cells (~50 k) were plated in Cisbio 96-well low volume white plates (Cisbio: cat #66PL96005). Compounds were dissolved in DMSO and a 3-fold serial dilution was performed using a TECAN D300E. Cells were incubated with the compound overnight. Total-IRAK3 HTRF kit from Cisbio was used for degradation analysis (Cisbio: 63ADK101PEH). Cryptate and D2 antibodies were diluted in Detection buffer as per manufacturers recommendation. Then 2 μL of each solution was added to 16 μL lysate. Buffer control (lysis buffer detection buffer), Cryptate control (lysis buffer+cryptate antibody+detection buffer), and Negative control (lysis buffer+cryptate antibody+D2 antibody) were made as per manufacturers recommendation. Post incubation with antibodies the HTRF signal was measured using a Perkin Elmer Envision reader and the HTRF signal was calculated using formula: (Emission at 665 nm/Emission at 615 nm)*10,000. All HTRF values were normalized to the average value of DMSO. The average value of the DMSO control wells were set to equal 100% of the relative IRAK3 protein levels. Normalized luminescence values were plotted on a graph as a function of compound concentration. Compound concentration was plotted on the x-axis and the corresponding normalized IRAK3 protein levels on the y-axis. The EC50 value (the half-maximum effective concentration) of a compound for the degradation of the IRAK3 was calculated using a four-parameter logistic model (sigmoidal dose-response model) (FIT=(A+{(B−A)/1+[(C/x)D]})) where C is the inflection point (EC50), D is the […], and A and B are the low and high limits of the fit, respectively). The Ymin was calculated by determining the lowest percentage of target protein remaining following compound treatment. Dmax was calculated from Ymin (% Dmax=100−Ymin).
# Using these assays, IC50, Dmax, EC50, and DC50 values of the following compounds were determined. Dmax is defined as the maximum percent degradation achieved and DC50 is the concentration at which 50% degradation is achieved.
# IRAK3-ePL = molecular target: T2, IRAK3-ePL (Homo sapiens, UniProt Q9Y616); assay: IRAK3-ePL overexpressing degradation assay (InCELL Hunter luminescence, dose response); format: cell-based; settings: for IRAK3 ePL degradation Ymin: lowest percentage of target protein remaining following compound treatment; for DC50: read-out: IRAK3 ePL degradation EC50
# T2 construct: expressed in transfected cells; host or cells: 293T CRBN OE/GSPT1 G575N KI cells, lentiviral transduction, puromycin selected
# Protocol: Example B1. IRAK3-ePL Overexpressing Degradation Assay
# Stable cell lines were generated by the following protocol. 3×10^5 Lenti-X 293T cells (Clonetech) were plated in 0.8 mL of media in a 12-well plate and incubated overnight at 37° C./5% CO2. Packaging plasmid (0.4 μg, pMD), envelope plasmid (0.4 μg, pSP), and lentiviral transfer IRAK3-ePL plasmid (0.8 μg, TRAK3 sequence NM_007199.3) were mixed in 0.1 mL of Opti-MEM and incubated for 5 min. Simultaneously, 2.4 μL of Lipofectamine 2000 (Invitrogen) was added to 0.1 mL of Opti-MEM (Gibco) and incubated for 5 min. The plasmid DNA and lipofectamine were combined and the mixture was allowed to incubate for 20 min.DNA:Lipofectamine Opti-MEM mixtures were then added to previously plated cells dropwise and the cells were incubated for ~16 h at 37° C./5% CO2. Following incubation, the media was removed and 1.2 mL of fresh media was added per well. Lenti-X 293T cells were incubated for ~30 h at 37° C./5% CO2. […] Following incubation, media was removed from the Lenti-X 293T wells and passed through a […] filter. Part of the viral supernatant was used to transduce cells and the rest was stored at −80° C. Viruses were then added individually (0.5 mL virus) to each well of the 293T^CRBN OE/GSPT1 G575N KI cells, followed by addition of polybrene (10 mg/mL Millipore) to each well at a final concentration of 5.0 μg/mL. Cells were incubated for ~24 h at 37° C./5% CO2. After aspirating media off plates, cells were washed with DPBS, trypsinized and plated in a 10 cm dish in 15 mL of media and […] puromycin. Following incubation of cells for ~72 h at 37° C./5% CO2, media was aspirated off plates, and cells were washed with DPBS and trypsinized. The cells were plated in a 15 cm dish in 40 mL of media with 1.0 μg/mL Puromycin (Gibco) and incubated for ~72 h at 37° C./5% CO2. Following incubation, media was removed and cells were washed with DPBS and trypsinized. The majority of cells were resuspended in Invitrogen freezing media and stored away (~6-8×10^6 cells/vial).
# IRAK3-ePL cellular dose response curve degradation assays were performed by the following protocol. Compounds to be tested were dispensed into a white 384-well tissue-culture treated plate using an acoustic liquid handler. Dilutions were prepared based on a 25 μL assay volume in duplicate 10 point 3-fold serial dilutions starting with a 10 μM dose. Negative control wells were included, which only contain 0.2% DMSO to calculate 100% signal. Positive control wells containing 30 μM Ataluren (luciferase inhibitor) were included to calculate the background signal level. All wells were backfilled to a final DMSO concentration of 0.2% to ensure DMSO uniformity across wells. IRAK3-ePL expressing cells (IRAK3-ePL Lenti-X 293T^CRBN/GSPT1 G575N) were washed, trypsinized, counted, and resuspended in fresh DMEM (Gibco) to give a cell concentration of 200,000 cells/mL. 25 μL of cells (5,000 cells/well) were dispensed into the wells of the 384-well plate prespotted with compounds in the previous step and incubated overnight at 37° C./5% CO2. Following incubation, the 384-well plate was taken out of the incubator and left at room temperature for 30 min. InCELL hunter reagent was prepared according to manufacturer's instructions (EA reagent, lysis buffer, and substrate reagent in a 1:1:4 ratio, Cat #96-0002, DiscoverX), which was added to the 384-well plate 25 μL per well. Following the incubation of the plate for 1 h at room temperature, the luminescence signal was read using a ViewLux plate reader. Data was processed and analyzed in ActivityBase software. In short, the average luminescence values of the positive control wells were subtracted from the rest of the wells for background correction, and all luminescence values were normalized to the DMSO control wells. The average value of the DMSO control wells was set to equal 100% of the relative IRAK3-ePL protein levels. […]
SMILES,IRAK3 HTRF degradation Ymin (IRAK3),IRAK3 ePL degradation Ymin (IRAK3-ePL),DC50 (IRAK3-ePL)
"O=C1CCC(N2C(=O)c3ccc(N4CCN(C(=O)CN5CCC(n6cc(Nc7ncc(-c8ccc9c(c8)NC(=O)CO9)n8ccnc78)cn6)CC5)CC4)cc3C2=O)C(=O)N1 (centres unmarked) [Compound 21, 2-(2,6-dioxopiperidin-3-yl)-5-(4-(2-(4-(4-((5-(3-ox0-3,4-dihydro-2H-benzo[b][1,4]oxazin-6-yl)imidazo[1,2-a]pyrazin-8-yl)amino)-1H-pyrazol-1-yl)piperidin-1-yl)acetyl)piperazin-1-yl)isoindoline-1,3-dione]",25%,–,–
"Cc1cc(-c2cnc(Nc3cnn([C@@H]4CCN(CCN5CCN(c6ccc(C7CCC(=O)NC7=O)cc6)C[C@H]5C)[C@H](C)C4)c3)c3nccn23)c(F)cc1F (stereo partly drawn) [Compound 29, 3-(4-((R)-4-(2-((2R,4R)-4-(4-((5-(2,4-difluoro-5-methylphenyl)imdazo [1,2-a]pyrazin-8-yl)amino)-1H-pyrazol-1-yl)-2-methylpiperidin-1-yl)ethyl)-3-methylpiperazin-1-yl)phenyl) piperidine-2,6-dione]",14%,24%,0.51 nM
"Cc1cc(-c2cnc(Nc3cnn([C@H]4CC[C@H](CCN5CCN(c6ccc(C7CCC(=O)NC7=O)cc6)C[C@H]5C)CC4)c3)c3nccn23)c(F)cc1F (stereo partly drawn) [Compound 37, 3-(4-((R)-4-(2-((trans)-4-(4-((5-(2,4-difluoro-5-methylphenyl)imidazo[1,2-a]pyrazin-8-yl)amino)-1H-pyrazol-1-yl)cyclohexyl)ethyl)-3-methylpiperazin-1-yl)phenyl) piperidine-2,6-dione]",10%,20%,3.8 nM
"C[C@H]1CN(c2ccc(C3CCC(=O)NC3=O)cc2)CCN1CCN1CCC(n2cc(Nc3ncc(C4CC4)n4ccnc34)cn2)CC1 (stereo partly drawn) [Compound 38, 3-(4-((S)-4-(2-(4-(4-((5-cyclopropylimidazo[1,2-a]pyrazin-8-yl)amino)-1H-pyrazol-1-yl)piperidin-1-yl)ethyl)-3-methylpiperazin-1-yl)phenyl) piperidine-2,6-dione]",9.1%,25%,0.51 nM
"Cc1cc(-c2cnc(Nc3cnn(C4CCN(CCN5CCN(c6cccc7c(C8CCC(=O)NC8=O)nn(C)c67)CC5)CC4)c3)c3nccn23)c(F)cc1F (centres unmarked) [Compound 41, 3-(7-(4-(2-(4-(4-((5-(2,4-difluoro-5-methylphenyl)imdazo [1,2-a]pyrazin-8-yl)amino)-1H-pyrazol-1-yl)piperidin-1-yl)ethyl)piperazin-1-yl)-1-methyl-1H-indazol-3-yl)piperidine-2,6-dione]",8.7%,25%,0.68 nM

# Second part, the compound after the results:
IRAK3 HTRF degradation Ymin (IRAK3),IRAK3 ePL degradation Ymin (IRAK3-ePL),DC50 (IRAK3-ePL),SMILES
17%,–,–,"Cc1cc(-c2cnc(Nc3cnn(C4CCN(C(=O)CN5CCN(c6ccc(C7CCC(=O)NC7=O)cc6)CC5)CC4)c3)c3nccn23)c(F)cc1F (centres unmarked) [Compound 23, 3-(4-(4-(2-(4-(4-((5-(2,4-difluoro-5-methylphenyl)imidazo[1,2-a]pyrazin-8-yl)amino)-1H-pyrazol-1-yl)piperidin-1-yl)-2-oxoethyl)piperazin-1-yl)phenyl)piperidine-2,6-dione]"
14%,24%,0.51 nM,"Cc1cc(-c2cnc(Nc3cnn([C@@H]4CCN(CCN5CCN(c6ccc(C7CCC(=O)NC7=O)cc6)CC5)[C@H](C)C4)c3)c3nccn23)c(F)cc1F (stereo partly drawn) [Compound 30, 3-(4-(4-(2-((2R,4R)-4-(4-((5-(2,4-difluoro-5-methylphenyl)imdazo [1,2-a]pyrazin-8-yl)amino)-1H-pyrazol-1-yl)-2-methylpiperidin-1-yl)ethyl)piperazin-1-yl)phenyl) piperidine-2,6-dione]"
9.8%,24%,1.1 nM,"Cc1ccc(F)c(-c2cnc(Nc3cnn(C4CCN(CCN5CCN(c6ccc(C7CCC(=O)NC7=O)cc6)CC5)CC4)c3)c3nccn23)c1 (centres unmarked) [Compound 36, 3-(4-(4-(2-(4-(4-((5-(2-fluoro-5-methylphenyl)imdazo [1,2-a]pyrazin-8-yl)amino)-1H-pyrazol-1-yl)piperidin-1-yl)ethyl)piperazin-1-yl)phenyl) piperidine-2,6-dione]"
14. %,32%,0.51 nM,"Cc1cc(-c2cnc(Nc3cnn(C4CCN(CCN5CCN(c6ccc7c(C8CCC(=O)NC8=O)nn(C)c7c6)CC5)CC4)c3)c3nccn23)c(F)cc1F (centres unmarked) [Compound 39, 3-(6-(4-(2-(4-(4-((5-(2,4-difluoro-5-methylphenyl)imdazo [1,2-a]pyrazin-8-yl)amino)-1H-pyrazol-1-yl)piperidin-1-yl)ethyl)piperazin-1-yl)-1-methyl-1H-indazol-3-yl)piperidine-2,6-dione]"
8.5%,24%,1.5 nM,CN1CCOc2ccc(-c3cnc(Nc4cnn([C@H]5CC[C@H](CCN6CCN(c7ccc(C8CCC(=O)NC8=O)cc7)CC6)CC5)c4)c4nccn34)cc21 (some centres unmarked) [Compound 40]
